According to the NIST ThermoML archive (doi:10.1016/j.tca.2017.07.001):
Several values for one entry are separate records, joined by “and”; a condition that tells them apart may be missing. Identical values can stand only once. Numbers after ± are expanded uncertainties.

Details: Liquid, Transpiration method

CC(C)(C)[N+](=O)[O-] [2-methyl-2-nitropropane]
Details	vapor or sublimation pressure [kPa]
299.3 K	2.054 ± 0.13
303.2 K	2.553 ± 0.16
304.2 K	2.705 ± 0.17
308.2 K	3.261 ± 0.2
309.2 K	3.527 ± 0.22
313.2 K	4.205 ± 0.26
314.2 K	4.41 ± 0.27
318.2 K	5.269 ± 0.33
323.2 K	6.65 ± 0.41
328.1 K	8.479 ± 0.53

CC(C)[N+](=O)[O-] [2-nitropropane]
Details	vapor or sublimation pressure
274.7 K	0.609 ± 0.038 kPa
274.8 K	0.604 ± 0.038 kPa and 0.597 ± 0.038 kPa
279.5 K	0.799 ± 0.05 kPa
279.6 K	0.827 ± 0.052 kPa
284.4 K	1.092 ± 0.068 kPa and 1.091 ± 0.068 kPa
289.3 K	1.459 ± 0.092 kPa
294.2 K	1.953 ± 0.12 kPa
294.3 K	1.9 ± 0.12 kPa
299.2 K	2.574 ± 0.16 kPa
304.1 K	3.344 ± 0.21 kPa
304.2 K	3.336 ± 0.21 kPa
309.1 K	4.299 ± 0.27 kPa
314.1 K	5.612 ± 0.35 kPa and 5.563 ± 0.34 kPa
